In patent US9873693B2 (Sunesis Pharmaceuticals, Inc., priority 2006, dated 2018):
Like-named read-outs stand apart in the source and are kept apart here.

Assays:
phosphorylated PDK1 = phosphorylated PDK1 (Homo sapiens (Human), UniProt O15530); experiment: PDK1 kinase assay (coupled PDK1/AKT/FAM-crosstide, IMAP); assay type: biochemical; conditions: 0.5 nM phosphorylated PDK1, 24 μM ATP; read-out: Inhibition of phospo-PDK1 in vitro IC50
dephosphorylated PDK1 = dephosphorylated PDK1 (Homo sapiens (Human), UniProt O15530); experiment: as above; assay type: biochemical; conditions: 25 nM un-phosphorylated PDK1, 24 μM ATP; read-out: Inhibition of dephospo-PDK1 in vitro IC50
In short: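 Coupled cascade using 25 nM dephosphorylated PDK1 (aa 51–360, lambda-phosphatase treated, MS-verified), 30 nM unphosphorylated GST-AKT2 (aa 140–467)-PIFtide and 100 nM FAM-crosstide in Tris pH 7.2, 10 mM MgCl2, 1 mM DTT. ATP was 24 μM, with 30 min at 25 °C. Product was read by IMAP fluorescence polarization, and ΔmP against concentration was fitted with a 4-parameter model.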

full-length PDK1 = full-length PDK1 (Homo sapiens (Human), UniProt O15530); experiment: PDK phosphorylation of AKT and PKC-PIFtide in presence of PIP3 vesicles; assay type: biochemical; conditions: substrates PKC-PIFtide vs AKT2
Protocol: PDK phosphorylation of two different substrates, AKT and PKC-PIFtide, was measured in presence of pre-formed phophoinositol lipid PIP3 vesicles. 5 nM full-length PDK1 and was incubated with 100 nM substrate (unphosphorylated, full-length AKT2 or PKC-PIFtide, Invitrogen cat#P2925) in presence of test compound or DMSO at room temperature for 3 hours. Final buffer conditions were 10 mM Tris pH 7.5 buffer containing 10 mM MgCl2, 0.002% Triton X-100, 1 mM DTT, 0.2 mg/ml BSA, 10 uM PtdIns(3,4,5)P3 (Matreya, Inc), 100 uM DOPC:DOPS (Avanti Polar Lipids), and 0.5 uCi γ^33P-ATP (3000 Ci/mmol, Perkin-Elmer.)
Kinase reactions were stopped with addition of 50 uM non-labelled ATP and 5 mM EDTA, then acidified with 0.5% final concentration phosphoric acid. Labeled proteins were collected in Whatman P81 filter plates and washed with three 150 ul volumes of 0.5% phosphoric acid.
Lipid vesicles were pre-formed as follows. 15 mg (3 ampules) DOPC:DOPS was resuspended in 898 ul 10 mM HEPES pH 7.4. 1 mg PIP3 was resuspended in 1000 ul 10 mM HEPES pH 7.4. 964 ul of PIP3 was mixed with 800 ul DOPC:DOPS and diluted with 18.2 ml 10 mM HEPES pH 7.4 and mixed by vortexing. The lipid mixture was subjected to 5 cycles of freeze/thaw using liquid nitrogen and a 50° C. water bath. Aliquot of lipids were flash frozen and stored at −20° C.

phospho-akt (Thr308) = phospho-akt (Thr308) MSD ELISA in PC-3 cells; assay type: cell-based; conditions: Homo sapiens, PC-3 cells; for inhibition at 1 µM / inhibition at 10 µM: read-out: Percent Inhibition of phospho-Akt (308) By MSD ELISA; for EC50: PC-3, 2 h, 2 hours, no serum
In short: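 PC-3 cells plated overnight in 10% FBS medium, then treated with three-fold serial compound dilutions in serum-free medium; DMSO-only wells as high control. Lysates captured on BSA-blocked MSD plates overnight at 4 degrees, detection antibody 1 hr RT, electrochemiluminescence read on MSD reader.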

Phospho-T308 Akt = Phospho-T308 Akt detection using immunoblot (western blot) in PC-3 cells; assay type: cell-based; conditions: for Reduction of Cellular Levels of Akt p308 By Western: 2 hour incubation, concentration not given in Table 2; for inhibition at 5 µM: Homo sapiens, read-out: Percent Inhibition of phospho-Akt (308) By Western
Protocol: A Phospho-T308 Akt detection using immunoblot (western blot) analysis was performed as described below.
PC-3 prostate cells were plated in a 6 well plate in F12K media (Invitrogen, Carlsbad, Calif.) plus 10% FBS (Invitrogen) and placed in incubator overnight. The stock of compound A was a 50 mM solution in DMSO. 1000× dilutions of the compound were made in DMSO. The 1000× dilutions include, 35 mM, 25 mM, 15 mM, 10 mM, 7 mM, 5 mM, and 1 mM. 1 μl of the 1000× dilutions was added to 1 ml F12K media without serum for final concentrations of […]. 1 μl of DMSO was added to 1 ml media with no serum for a control. The 1 ml DMSO or compound plus media was then added to the cells. Following a 2 hour incubation at 37° C., cells were harvested and washed in PBS and subjected to centrifugation at 3,300 rpm for 5 minutes. Cells were lysed in 100 μl of Bio Rad Bioplex buffer containing protease inhibitors (BioRad, Hercules, Calif.) for 30 minutes on ice followed by centrifugation at 13,000 rpm for 5 minutes. The protein content of the supernatant was assayed using DC Protein Assay (BioRad). 25 μl of protein was added to 4× sample buffer (Invitrogen) and sample reducer (Invitrogen) and run on a 4-12% NuPage gel (Invitrogen). Proteins were then transferred to nitrocellulose (Invitrogen). The membrane was blocked in Tris-buffered saline (Sigma, St. Louis, Mo.) plus 0.1% Tween (Sigma) (T-TBS) plus 5% blotting grade milk (BioRad) for 60 minutes. Membranes were then incubated in T-TBS plus 5% BSA (Sigma) plus 1:1000 of anti-phospho akt (Thr 308) (Cell Signaling Technology, Beverly, Mass.) overnight at 4° C. Membranes were washed in T-TBS then incubated in 1:2000 of anti-rabbit-HRP (Cell Signaling) in TTBS plus 5% milk. Membranes were washed again and proteins were visualized with Super Signal West Pico (Pierce, Rockford, Ill.) and using Kodak BioMax MR film (Kodak, Rochester, N.Y.).
Phospho-akt 308 protein bands on the film were quantified using densitometry. An Alpha Imager (Alpha Innotech Corp, San Leandro, Calif.) using AlphaEase FC software version 4.1.0 (Alpha Innotech Corp.) was used to quantitate protein bands. Briefly, a rectangle of equal size was placed around each protein band as well as a background spot on the film. The densitometry values (IDV=Integrated Density Value) obtained for the background spot was then subtracted from the values obtained for the protein bands. These values were used to obtain an EC50 value using non-linear regression analysis in GraphPad Prism Version 4.00 (Graph Pad Prism, San Diego, Calif.). Percent decrease in expression of phosphoh-akt 308 were also measured specifically at 2 μM and 5 μM levels of inhibitor.

[1] = read-out: Inhibition of P308 Akt in cells using MSD EC50

phosphorylated PDK1, sequence (O15530 51-360): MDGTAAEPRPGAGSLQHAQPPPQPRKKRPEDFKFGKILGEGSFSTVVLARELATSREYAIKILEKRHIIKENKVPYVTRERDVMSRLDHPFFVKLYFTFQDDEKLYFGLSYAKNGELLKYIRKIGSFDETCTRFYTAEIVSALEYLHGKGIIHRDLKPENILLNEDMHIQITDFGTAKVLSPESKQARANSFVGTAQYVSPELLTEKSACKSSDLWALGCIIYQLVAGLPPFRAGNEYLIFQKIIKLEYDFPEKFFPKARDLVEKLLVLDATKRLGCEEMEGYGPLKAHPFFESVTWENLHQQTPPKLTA
dephosphorylated PDK1, sequence (O15530 51-360): as above
full-length PDK1, sequence (O15530 whole entry): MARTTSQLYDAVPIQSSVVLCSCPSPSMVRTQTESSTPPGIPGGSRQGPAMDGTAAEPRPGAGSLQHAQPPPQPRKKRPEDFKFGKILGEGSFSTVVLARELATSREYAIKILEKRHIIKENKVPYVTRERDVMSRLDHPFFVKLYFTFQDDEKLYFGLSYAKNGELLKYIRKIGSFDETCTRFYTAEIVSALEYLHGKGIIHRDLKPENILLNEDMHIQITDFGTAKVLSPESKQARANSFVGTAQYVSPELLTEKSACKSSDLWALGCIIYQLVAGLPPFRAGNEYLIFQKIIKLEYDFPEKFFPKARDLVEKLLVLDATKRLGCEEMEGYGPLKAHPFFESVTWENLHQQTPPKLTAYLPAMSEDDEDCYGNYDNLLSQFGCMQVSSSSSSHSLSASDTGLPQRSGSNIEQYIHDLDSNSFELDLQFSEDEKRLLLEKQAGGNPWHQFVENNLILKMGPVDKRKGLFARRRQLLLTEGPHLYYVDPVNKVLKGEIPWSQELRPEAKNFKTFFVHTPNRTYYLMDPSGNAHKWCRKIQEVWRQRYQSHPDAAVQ

Row | EC50 (phospho-akt (Thr308); read-out: Reduction of Cellular Levels of Akt p308 By MSD ELISA (EC50 μM)) [µM] | SMILES | IC50 (phosphorylated PDK1) [µM] | IC50 (dephosphorylated PDK1) [µM] | Ratio of PIP3 IC50 with PKCtide to PIP3 IC50 with AKT (full-length PDK1) | inhibition at 1 µM (phospho-akt (Thr308)) [%] | inhibition at 10 µM (phospho-akt (Thr308)) [%] | Reduction of Cellular Levels of Akt p308 By Western (Phospho-T308 Akt) | inhibition at 5 µM (Phospho-T308 Akt) [%] | EC50 (phospho-akt (Thr308); [1]) [µM]
1 | – | COc1ccnc(NCCC#CCCNC(=O)c2cccn(Cc3cccc(Cl)c3)c2=O)n1 [Cpd 102] | 0.5 to 10 | < 0.5 | 19.1 | – | – | – | – | –
2 | – | O=C(O)C[C@@H](NC(=O)c1cccn(Cc2ccc(F)c(F)c2)c1=O)c1nnc(-c2c[nH]c3ncccc23)o1 [Cpd 287] | < 0.5 | < 0.5 | – | < 25 | < 25 | bb (inhibition of from 25% to 75%) | 25 to 75 | –
3 | – | CN(C)C(=O)C[C@@H](NC(=O)c1cccn(Cc2ccc(F)c(F)c2)c1=O)c1nnc(-c2c[nH]c3ncccc23)o1 [Cpd 290] | 0.5 to 10 | < 0.5 | – | < 25 | 25 to 75 | bb (inhibition of from 25% to 75%) | 25 to 75 | –
4 | – | COC(=O)[C@@H](COc1ccc2[nH]c(=O)[nH]c2c1)NC(=O)c1cccn(Cc2ccc(F)c(F)c2)c1=O [Cpd 293] | < 0.5 | < 0.5 | – | 25 to 75 | > 75 | bb (inhibition of from 25% to 75%) | 25 to 75 | –
5 | – | CC(C)(C)OC(=O)NC[C@@H](NC(=O)c1cccn(Cc2ccc(F)c(F)c2)c1=O)c1nc(-c2c[nH]c3ncccc23)cs1 [Cpd 295] | < 0.5 | < 0.5 | – | < 25 | > 75 | bb (inhibition of from 25% to 75%) | 25 to 75 | 1 to 5
6 | – | NC[C@@H](NC(=O)c1cccn(Cc2ccc(F)c(F)c2)c1=O)c1nc(-c2c[nH]c3ncccc23)cs1 [Cpd 296] | < 0.5 | < 0.5 | – | < 25 | > 75 | bb (inhibition of from 25% to 75%) | 25 to 75 | 1 to 5
7 | – | O=C(C[C@@H](NC(=O)c1cccn(Cc2ccc(F)c(F)c2)c1=O)c1nnc(-c2c[nH]c3ncccc23)o1)NCCN1CCCC1 [Cpd 298] | < 0.5 | < 0.5 | – | < 25 | < 25 | b (inhibition of less 25%) | < 25 | –
8 | – | C[C@@H](c1ccc(Cl)cc1)n1cccc(C(=O)NCc2noc(-c3c[nH]c4ncccc34)n2)c1=O [Cpd 300] | < 0.5 | < 0.5 | – | 25 to 75 | > 75 | bbb (inhibition of more than 75%) | > 75 | 1 to 5
9 | 1 to 5 | C=CCOC(=O)C[C@@H](NC(=O)c1cccn(Cc2ccc(F)c(F)c2)c1=O)c1ncc(-c2c[nH]c3ncccc23)o1 [Cpd 301] | < 0.5 | < 0.5 | – | 25 to 75 | 25 to 75 | bbb (inhibition of more than 75%) | > 75 | 1 to 5
10 | – | O=C(NCc1noc(-c2c[nH]c3ncccc23)n1)c1cccn(Cc2cccc(F)c2)c1=O [Cpd 302] | < 0.5 | < 0.5 | – | < 25 | 25 to 75 | bbb (inhibition of more than 75%) | > 75 | –
11 | – | O=C(NCc1noc(-c2c[nH]c3ncccc23)n1)c1cccn(Cc2ccc(F)cc2)c1=O [Cpd 303] | < 0.5 | < 0.5 | – | < 25 | < 25 | bbb (inhibition of more than 75%) | > 75 | –
12 | – | O=C(NCc1noc(-c2c[nH]c3ncccc23)n1)c1cccn(Cc2ccc(Cl)c(F)c2)c1=O [Cpd 304] | < 0.5 | < 0.5 | – | < 25 | > 75 | bbb (inhibition of more than 75%) | > 75 | 1 to 5
13 | – | O=C(NCc1noc(-c2c[nH]c3ncccc23)n1)c1cccn(Cc2ccc(Cl)cc2)c1=O [Cpd 305] | < 0.5 | < 0.5 | – | < 25 | > 75 | bbb (inhibition of more than 75%) | > 75 | 1 to 5
14 | – | NC(=O)C[C@@H](NC(=O)c1cccn(Cc2ccc(F)c(F)c2)c1=O)c1ncc(-c2c[nH]c3ncccc23)o1 [Cpd 306] | < 0.5 | < 0.5 | – | < 25 | 25 to 75 | bbb (inhibition of more than 75%) | > 75 | –
15 | – | O=C(O)CC[C@@H](NC(=O)c1cccn(Cc2ccc(F)c(F)c2)c1=O)c1nc(-c2c[nH]c3ncccc23)co1 [Cpd 307] | < 0.5 | < 0.5 | – | < 25 | < 25 | b (inhibition of less 25%) | < 25 | –
16 | – | O=C(NCc1noc(-c2c[nH]c3ncccc23)n1)c1cc(Cl)cn(Cc2ccc(Cl)cc2)c1=O [Cpd 309] | < 0.5 | < 0.5 | – | 25 to 75 | > 75 | bb (inhibition of from 25% to 75%) | 25 to 75 | 1 to 5
17 | – | O=C(NCc1noc(-c2c[nH]c3ncccc23)n1)c1cc(Cl)cn(Cc2cccc(F)c2)c1=O [Cpd 310] | < 0.5 | < 0.5 | – | 25 to 75 | 25 to 75 | bb (inhibition of from 25% to 75%) | 25 to 75 | 1 to 5
